Common to all, as to assay type: cell-based
In experiment [1] the test system is ESKAPE bacteria, L. monocytogenes and S. enterica. Briefly: Antimicrobial activity in PPB, summarised over the tested bacteria. As to conditions: PPB, peptides tested up to 25 μM. An excerpt:
(§1) The pathogenic bacterial strains obtained from the ATCC (United States) and NCTC (National Collection of Type Cultures – England) were the Gram-positive: Enterococcus faecalis (ATCC 29212), Staphylococcus aureus (HNCMO112011), Listeria monocytogenes (ATCC 19111) and the Gram-negative: Pseudomonas aeruginosa (ATCC 27853), Escherichia coli (ATCC 8739), Salmonella enterica (ATCC 13076), Klebsiella pneumoniae (NCTC 13440), Acinetobacter baumannii (ATCC 17978).
(§2) Overnight bacterial cultures grown in LB were diluted and grown to OD600 = 0.2–0.6 at 37°C with shaking. After harvesting and washing bacteria in PPB, the suspensions were adjusted to OD600 = 0.1 corresponding to ∼10^7 bacteria/mL. Antimicrobial activity of the peptides and the antibiotics was determined in PPB in 96 well microplates using 10 μL bacterial suspension and 90 μL of the 2-fold serial dilutions of peptides or antibiotics. Peptides were tested from 25 μM to 0.125 μM whereas the antibiotics; carbenicillin (Cb) from Duchefa Biochemie (Prod.No. C0109.0025) and levofloxacin (Lvx) from Sigma-Aldrich (Prod.No. 28266-10MG-F) from […] to 0.1 μM. The microplates were incubated for 3 h at 37°C with 250 rpm shaking and then 5 μl from each sample was placed on LB agar and the growth of bacteria was monitored after overnight incubation at 37°C. The lowest concentration of the antimicrobial agents, which completely eliminated viable bacteria was the minimal bactericidal concentration (MBC).

Experiment [2] relates to Acinetobacter baumannii (ATCC 17978). The experiment is described as follows: microbe, parasite or virus in culture. To be noted: read-out: Minimal bactericidal concentration (MBC) A. b.
Excerpt: as §1, §2

Experiment [3] relates to Enterococcus faecalis (ATCC 29212). Briefly: microbe, parasite or virus in culture. To be noted: read-out: Minimal bactericidal concentration (MBC) E. f.
Excerpt: as §1, §2

Experiment [4] has as its system Escherichia coli (ATCC 8739). The experiment is described as follows: microbe, parasite or virus in culture. As to conditions: read-out: Minimal bactericidal concentration (MBC) E. c.
Excerpt: as §1, §2

Experiment [5] deals with Klebsiella pneumoniae (NCTC 13440). Briefly: microbe, parasite or virus in culture. As to conditions: for MBC: read-out: Minimal bactericidal concentration (MBC) K. p.
Excerpt: as §1, §2

In experiment [6] the test system is Listeria monocytogenes (ATCC 19111). Briefly: microbe, parasite or virus in culture. To be noted: for MBC: read-out: Minimal bactericidal concentration (MBC) L. m.
Excerpt: as §1, §2

The subject of experiment [7] is Pseudomonas aeruginosa (ATCC 27853). Briefly: microbe, parasite or virus in culture. To be noted: read-out: Minimal bactericidal concentration (MBC) P. a.
Excerpt: as §1, §2

Experiment [8] has as its system Salmonella enterica (ATCC 13076). Briefly: microbe, parasite or virus in culture. As to conditions: read-out: Minimal bactericidal concentration (MBC) S. e.
Excerpt: as §1, §2

Experiment [9] relates to Staphylococcus aureus (HNCMO112011). The experiment is described as follows: microbe, parasite or virus in culture. As to conditions: read-out: Minimal bactericidal concentration (MBC) S. a.
Excerpt: as §1, §2

Experiment [10] deals with Acinetobacter baumannii.
Excerpt: as §1
(§3) Ca^2+ and Mg^2+ can inhibit the antimicrobial activity of cationic peptides, therefore the MBC and MIC values were also determined in MHB, which unlike PPB contains divalent cations and allows growth of bacteria. Bacteria were grown and prepared similarly except that bacteria were resuspended in MHB. 10 μl of bacteria OD600 = 0.1, supplemented with 45 μl MHB and 45 μl of 2-fold dilution series of peptides, were cultivated for 3 and 20 h at 37°C with shaking. Optical density of each sample was measured (Hidex Sense Microplate Reader with Plate Reader Software version 5064) and 5 μl was placed on LB agar plates after 3 and 20 h treatment. The minimal inhibitory concentration (MIC) corresponded to the lowest concentration, which inhibited growth.

The test system of experiment [11] is Escherichia coli.
Excerpt: as §1, §3

Experiment [12] has as its system Staphylococcus aureus.
Excerpt: as §1, §3

[13] abbreviates: 3 h treatment in PPB (20 mM potassium-phosphate buffer, pH 7.4), 37°C, then plating on LB agar.
Where [14] appears, read: MHB, 3 h treatment, 37°C (panel assigned).
Setting [15] is: MHB, 20 h cultivation, 37°C, optical density (panel assigned).
The mark [16] stands for this setting: MHB, 20 h treatment, 37°C (panel assigned).

In brackets after ≈: the same amount, converted by molar mass. Like-named read-outs stand apart in the source and are kept apart here. Peptide text beside a SMILES is read from it.

On to “RNGCIVDPRCPY [N-terminal part, 12 amino acid long N-terminal half of NCR247]”, for which, in [1], the “Antimicrobial activity on the tested bacteria” value was “inactive”.

Take `CC[C@H](C)[C@H](NC(=O)[C@H](CS)NC(=O)CNC(=O)[C@H](CC(N)=O)NC(=O)[C@@H](N)CCCNC(=N)N)C(=O)N[C@H](C(=O)N[C@@H](CC(=O)O)C(=O)N1CCC[C@H]1C(=O)N[C@@H](CCCNC(=N)N)C(=O)N[C@@H](CS)C(=O)N1CCC[C@H]1C(=O)N[C@@H](Cc1ccc(O)cc1)C(=O)N[C@@H](CCC(N)=O)C(=O)N[C@@H](CCC(N)=O)C(=O)N[C@@H](CS)C(=O)N[C@@H](CCCNC(=N)N)C(=O)N[C@@H](CCCNC(=N)N)C(=O)N1CCC[C@H]1C(=O)N[C@@H](CC(C)C)C(=O)N[C@@H](Cc1ccc(O)cc1)C(=O)N[C@@H](CS)C(=O)N[C@@H](CCCNC(=N)N)C(=O)N[C@@H](CCCNC(=N)N)C(=O)N[C@@H](CCCNC(=N)N)C(N)=O)C(C)C` [A, NCR247] (H-RNGCIVDPRCPYQQCRRPLYCRRR-NH2; N-terminus assumed): the MBC is 12.5 µM (≈ 37.6 µg/mL) in experiment [2] (ATCC 17978, 3 h, pH 7.4); >25 µM in experiment [3] (ATCC 29212, 3 h, pH 7.4); 6.3 µM (≈ 19 µg/mL) in experiment [4] (ATCC 8739, 3 h, pH 7.4); >25 µM in [6] (ATCC 19111, 3 h, pH 7.4); 3.1 µM (≈ 9.33 µg/mL) in experiment [7] (ATCC 27853, 3 h, pH 7.4); 25 µM (≈ 75.2 µg/mL) in experiment [8] (ATCC 13076, 3 h, pH 7.4). Besides, the MBC in experiment [9] (HNCMO112011, 3 h, pH 7.4) came to 6.3 µM (≈ 19 µg/mL). The “Minimal bactericidal concentration (MBC) K. p.” value in experiment [5] (setting [13]) is “resistant at 25 μM”. For the same compound, the “Minimal bactericidal concentration (MBC) L. m.” value in experiment [6] (setting [13]) is on record as “resistant at 25 μM”. Besides, the “MBC in Mueller Hinton Broth, panel (A), A. b.” value (“MBC … (A), A. b.” for short) in experiment [10] (3 h) was > 25 µM. Also, in experiment [10] (20 h), the “MBC in Mueller Hinton Broth, panel (B), A. b.” value (shortened to “MBC … (B), A. b.”) is >25 µM. Moreover, in experiment [10] (20 h), the “MIC in Mueller Hinton Broth, panel (C), A. b.” value (“MIC … A. b.” below) was >25 µM. In addition, the “MBC in Mueller Hinton Broth, panel (A), E. c.” value (shortened to “MBC … (A), E. c.”) in experiment [11] (3 h) is > 25 µM. In experiment [11] (20 h), the “MBC in Mueller Hinton Broth, panel (B), E. c.” value (“MBC … (B), E. c.” below) was >25 µM. Also, the “MIC in Mueller Hinton Broth, panel (C), E. c.” value (from here on “MIC … E. c.”) in experiment [11] (20 h) worked out at 25 µM (≈ 75.2 µg/mL). The “MBC in Mueller Hinton Broth, panel (A), S. a.” value (“MBC … (A), S. a.” below) in experiment [12] (3 h) was > 25 µM. In addition, the “MBC in Mueller Hinton Broth, panel (B), S. a.” value (from here on “MBC … (B), S. a.”) in [12] (20 h) was >25 µM. In addition, the “MIC in Mueller Hinton Broth, panel (C), S. a.” value (shortened to “MIC … S. a.”) in experiment [12] (20 h) is >25 µM.

Regarding `CC[C@H](C)[C@H](NC(=O)[C@H](CCCCN)NC(=O)[C@H](CCCCN)NC(=O)[C@H](C)NC(=O)[C@H](CC(C)C)NC(=O)[C@H](C)NC(=O)[C@H](C)NC(=O)[C@H](CC(C)C)NC(=O)[C@H](C)NC(=O)[C@@H](N)CCCCN)C(=O)N[C@@H](CC(C)C)C(N)=O` [I, X2] (H-KALAALAKKIL-NH2), the MBC is on record as 25 µM (≈ 28.5 µg/mL) in experiment [2] (setting [13]); >25 µM in experiment [3] (setting [13]); >25 µM in experiment [4] (setting [13]); >25 µM in experiment [5] (setting [13]); 25 µM (≈ 28.5 µg/mL) in experiment [6] (setting [13]); 6.3 µM (≈ 7.17 µg/mL) in [7] (setting [13]). Also, the MBC in experiment [8] (setting [13]) is recorded as >25 µM; in experiment [9] (setting [13]) it was 25 µM (≈ 28.5 µg/mL). Moreover, the “MBC … (A), A. b.” value in experiment [10] (setting [14]) was > 25 µM. The “MIC … A. b.” value in experiment [10] (setting [15]) stood at 25 µM (≈ 28.5 µg/mL). The “MBC … (B), A. b.” value in experiment [10] (setting [16]) was >25 µM. Besides, the “MBC … (A), E. c.” value in experiment [11] (setting [14]) was > 25 µM. The “MIC … E. c.” value in experiment [11] (setting [15]) is >25 µM. In addition, in experiment [11] (setting [16]), the “MBC … (B), E. c.” value is >25 µM. Moreover, in [12] (setting [14]), the “MBC … (A), S. a.” value was > 25 µM. Besides, the “MIC … S. a.” value in [12] (setting [15]) is >25 µM. The “MBC … (B), S. a.” value in experiment [12] (setting [16]) is >25 µM.

As to `CC(C)C[C@H](NC(=O)[C@@H]1CCCN1C(=O)[C@H](CCCNC(=N)N)NC(=O)[C@H](CCCNC(=N)N)NC(=O)[C@H](CS)NC(=O)[C@H](CCC(N)=O)NC(=O)[C@@H](N)CCC(N)=O)C(=O)N[C@@H](Cc1ccc(O)cc1)C(=O)N[C@@H](CS)C(=O)N[C@@H](CCCNC(=N)N)C(=O)N[C@@H](CCCNC(=N)N)C(=O)N[C@@H](CCCNC(=N)N)C(N)=O` [B, NCR247C] (H-QQCRRPLYCRRR-NH2; N-terminus assumed), the MBC in experiment [2] (ATCC 17978, 3 h, pH 7.4) is 25 µM (≈ 40.8 µg/mL); in [3] (ATCC 29212, 3 h, pH 7.4), >25 µM; in [4] (ATCC 8739, 3 h, pH 7.4), 6.3 µM (≈ 10.3 µg/mL); in experiment [5] (NCTC 13440, 3 h, pH 7.4) it was >25 µM; in experiment [6] (ATCC 19111, 3 h, pH 7.4), >25 µM; in experiment [7] (ATCC 27853, 3 h, pH 7.4), 25 µM (≈ 40.8 µg/mL). The MBC in experiment [8] (ATCC 13076, 3 h, pH 7.4) is listed as >25 µM; in [9] (HNCMO112011, 3 h, pH 7.4), >25 µM. Also, the “MBC … (A), A. b.” value in experiment [10] (3 h) was > 25 µM. The “MBC … (B), A. b.” value in experiment [10] (20 h) is >25 µM. Besides, the “MIC … A. b.” value in experiment [10] (20 h) is >25 µM. Moreover, the “MBC … (A), E. c.” value in experiment [11] (3 h) is > 25 µM. Besides, the “MBC … (B), E. c.” value in experiment [11] (20 h) is >25 µM. Further, the “MIC … E. c.” value in experiment [11] (20 h) is >25 µM. In addition, the “MBC … (A), S. a.” value in [12] (3 h) is > 25 µM. In addition, in experiment [12] (20 h), the “MBC … (B), S. a.” value was >25 µM. In [12] (20 h), the “MIC … S. a.” value was >25 µM.

Source of the values: article PMC7047876, “Potent Chimeric Antimicrobial Derivatives of the Medicago truncatula NCR247 Symbiotic Peptide” (Frontiers in Microbiology, 2020).
